Laboratory results taken from the supplement of paper PMC10307832.

Legend:
Assay in all cases: relative viability (nuclei count vs DMSO), 5 days (fraction); higher = more cells survive
Bortezomib + Navitoclax = compound: CC(C)C[C@H](NC(=O)[C@H](Cc1ccccc1)NC(=O)c1cnccn1)B(O)O [Bortezomib] + CC1(C)CCC(c2ccc(Cl)cc2)=C(CN2CCN(c3ccc(C(=O)NS(=O)(=O)c4ccc(N[C@H](CCN5CCOCC5)CSc5ccccc5)c(S(=O)(=O)C(F)(F)F)c4)cc3)CC2)C1 [Navitoclax] (partner 0.5 µM)
Procedure, shortened: (§1)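 A single step with final 0.05% Triton X-100, 1% formaldehyde and 1 ug/ml Hoechst fixed the cells and stained nuclei 5 days after treatment. Lung cancer cell lines in 1536-well plates had been treated by pin tool the day after seeding with one drug alone or a fixed anchor-drug dose plus five library-drug doses (not always all listed) in √10 steps, and nuclei were counted on 4× images. Relative viability is the ratio of nuclei in treated wells to nuclei in vehicle wells, taken as the median of duplicate plates.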

[1] = compound: CC1=CC(=NN1)NC2=CC(=NC(=N2)/C=C/C3=CC=CC=C3)N4CCN(CC4)C + Cc1cc(Nc2cc(N3CCN(C)CC3)nc(Sc3ccc(NC(=O)C4CC4)cc3)n2)n[nH]1 [Tozasertib] (partner 0.1 µM)
Procedure, shortened: as §1

Obatoclax + Luminespib = compound: COC1=CC(c2cc3ccccc3[nH]2)=N/C1=C\c1[nH]c(C)cc1C [Obatoclax] + CCNC(=O)c1noc(-c2cc(C(C)C)c(O)cc2O)c1-c1ccc(CN2CCOCC2)cc1 [Luminespib] (partner 0.01 µM)
Procedure, shortened: as §1

Bortezomib + Pemetrexed = compound: CC(C)C[C@H](NC(=O)[C@H](Cc1ccccc1)NC(=O)c1cnccn1)B(O)O [Bortezomib] + Nc1nc2[nH]cc(CCc3ccc(C(=O)N[C@@H](CCC(=O)O)C(=O)O)cc3)c2c(=O)[nH]1 [Pemetrexed] (partner 0.2 µM)
Procedure, shortened: as §1

Cell Line | relative viability (Bortezomib + Navitoclax; first compound 0.0002 µM) | relative viability (Bortezomib + Navitoclax; first compound 0.000632 µM) | relative viability (Bortezomib + Navitoclax; first compound 0.002 µM) | relative viability (Bortezomib + Navitoclax; first compound 0.006325 µM) | relative viability (Bortezomib + Navitoclax; first compound 0.02 µM) | relative viability ([1]; first compound 0.08 µM) | relative viability ([1]; first compound 0.253 µM) | relative viability ([1]; first compound 0.8 µM) | relative viability ([1]; first compound 2.53 µM) | relative viability ([1]; first compound 8 µM) | relative viability (Obatoclax + Luminespib; first compound 0.01 µM) | relative viability (Obatoclax + Luminespib; first compound 0.03162 µM) | relative viability (Obatoclax + Luminespib; first compound 0.1 µM) | relative viability (Obatoclax + Luminespib; first compound 0.3162 µM) | relative viability (Obatoclax + Luminespib; first compound 1 µM) | relative viability (Bortezomib + Pemetrexed; first compound 0.0002 µM) | relative viability (Bortezomib + Pemetrexed; first compound 0.000632 µM) | relative viability (Bortezomib + Pemetrexed; first compound 0.002 µM) | relative viability (Bortezomib + Pemetrexed; first compound 0.006325 µM) | relative viability (Bortezomib + Pemetrexed; first compound 0.02 µM)
NCI-H647 | 0.997 | 1.1 | 0.619 | 0.0302 | 0.0207 | 0.236 | 0.202 | 0.257 | 0.123 | 0.108 | 0.128 | 0.186 | 0.179 | 0.21 | 0.114 | 0.17 | 0.199 | 0.134 | 0.0326 | 0.0194
NCI-H838 | 1.21 | 1.21 | 1.17 | 0.171 | 0.161 | 0.296 | 0.287 | 0.271 | 0.211 | 0.119 | 0.226 | 0.222 | 0.3 | 0.243 | 0.188 | 0.252 | 0.231 | 0.264 | 0.161 | 0.161
NCI-H1355 | 0.85 | 0.95 | 0.737 | 0.604 | 0.139 | 0.536 | 0.502 | 0.511 | 0.173 | 0.129 | 0.641 | 0.588 | 0.769 | 0.632 | 0.78 | 1.02 | 0.97 | 1.06 | 0.711 | 0.13
NCI-H1395 | 1.27 | 1.52 | 0.448 | 0.39 | 0.345 | 0.76 | 0.751 | 0.566 | 0.496 | 0.315 | 0.634 | 0.491 | 0.701 | 0.523 | 0.421 | 0.77 | 0.767 | 0.579 | 0.26 | 0.264
NCI-H1437 | 1.08 | 1.09 | 1.1 | 0.118 | 0.123 | 0.422 | 0.462 | 0.424 | 0.344 | 0.201 | 1.09 | 1.17 | 1.04 | 0.983 | 0.956 | 0.284 | 0.301 | 0.351 | 0.172 | 0.157
NCI-H1650 | 1.17 | 1.17 | 0.191 | 0.119 | 0.106 | 0.384 | 0.384 | 0.373 | 0.187 | 0.169 | 0.172 | 0.208 | 0.21 | 0.202 | 0.23 | 0.403 | 0.335 | 0.141 | 0.13 | 0.186
NCI-H1651 | 1.17 | 0.958 | 0.263 | 0.14 | 0.101 | 0.678 | 0.658 | 0.661 | 0.296 | 0.177 | 0.866 | 0.792 | 1.16 | 0.811 | 0.516 | 0.603 | 0.618 | 0.565 | 0.594 | 0.362
NCI-H1666 | 0.832 | 1.08 | 0.848 | 0.211 | 0.196 | 0.559 | 0.549 | 0.554 | 0.336 | 0.298 | 1.05 | 1.06 | 1.03 | 0.509 | 0.378 | 0.816 | 0.872 | 0.858 | 0.579 | 0.443
